{"source": "paper PMC6657668", "about": "“Porcine Beta-Defensin 2 Provides Protection Against Bacterial Infection by a Direct Bactericidal Activity and Alleviates Inflammation via Interference With the TLR4/NF-κB Pathway” (Frontiers in Immunology, 2019)", "key": {"[1]": {"details": "transgenic expression; ref [24]; cited from earlier work"}, "[2]": {"test_system": "JNK", "assay": "Western blot of JNK and p-JNK in RAW 264.7 cells", "format": "cell-based, mouse", "details": "LPS 30 min with various concentrations of PBD-2 (Figure S4)", "description": "(§1) RAW 264.7 cells were treated with LPS (1 μg/ml) alone or together with PBD-2 (10 μg/mL). […] Proteins were firstly analyzed with SDS-PAGE and then electro-transferred onto a PVDF (#ISEQ00010, Biosharp®, Beijing, China) membrane. The PVDF membrane was blocked with 1/100 bovine serum albumin (BSA, #V900933-100G, VETEC, Sigma-Aldrich®, St. Louis, MO, USA) at 10 μg/ml at 37°C for 2 h, washed with PBST five times, incubated with the antisera against p-p65 (# 3033), p65 (# 4764), p-ERK (# 4370), ERK (# 4695), p-p38 (# 4511), p38 (# 8690), p-JNK (# 4668), JNK (# 9258) (Cell Signaling Technology®, Danvers, MA, USA), and β-actin (# AA128, Beyotime®, Shanghai, China) at 2 μg/ml at 37°C for 2 h and washed five times again. The PVDF membrane was subsequently incubated with 1 μg/ml secondary antibody, namely, goat anti-rabbit IgG (# 7074S, Cell Signaling Technology®, Danvers, MA, USA), at 37°C for 2 h and washed five times. Lastly, immune-reactive bands were detected using an ECF Western blot system (Tanon 5200 Multi, Shanghai, China) and quantified using AlphaImager 2200 analysis software.\n(§2) Supplementary file Image_4.TIF: Figure S4 Effects of PBD-2 on ERK, p38, and JNK signaling pathways. Cells were treated with LPS for 30 min with or without various concentrations of PBD-2. […] The signal intensity of each band was quantified (B–D). […]"}, "[3]": {"format": "binding, Escherichia coli O55:B5", "details": "ITC, 25°C; PBD-2 0.75 mM in syringe, LPS in cell (0.010 to 0.050 mM; Figure S6: 0.050 mM)"}, "[4]": {"design": "method as in 2 sources, one per row (each row's own in cited_ref): ref [13] = [13]; PMID 27383796; doi:10.5713/ajas.16.0207; 13. Xu J Zhong F Zhang Y Zhang J Huo S Lin H . Construction of Bacillus subtilis strain engineered for expression of porcine beta-defensin-2/cecropin P1 fusion antimicrobial peptides and its growth-pr ||| ref [15] = [15]; PMID 26707031; doi:10.1111/asj.12540; 15. Tang Z Xu L Shi B Deng H Lai X Liu J . Oral administration of synthetic porcine beta-defensin-2 improves growth performance and cecal microbial flora and down-regulates the expression of intestina", "details": "cited from earlier work"}, "[5]": {"details": "PBD-2 overexpressed in TG pigs; ref [16]; cited from earlier work", "text": "The antibiotic resistance of pathogenic bacteria has become a global threat ([30]). Defensins are natural peptides secreted by many species and implicated in resisting bacterial infection ([31]). PBD-2 is one of the defensins expressed in pigs. […] The invasion of S. Typhimurium can increase the expression of PBD-2 in porcine epithelial cells ([32]). […] PBD-2 also improves the growth perf ..."}, "[6]": {"test_system": "S. Typhimurium", "design": "species or system Salmonella Typhimurium 14028 (in mice)", "details": "mouse, in vivo, po"}, "[7]": {"test_system": "p38", "assay": "Western blot of p38 and p-p38 in RAW 264.7 cells", "format": "cell-based, mouse", "details": "LPS 30 min with various concentrations of PBD-2 (Figure S4)", "description": "as §1, §2"}, "[8]": {"details": "PBD-2 expressed in TG mice, uninfected, n ≥ 6, vs WT", "protocol": "After the mice were euthanized, blood samples of TG and WT mice were collected. Alanine aminotransferase, aspartate aminotransferase, albumin, globin, albumin/globin, total bilirubin, direct bilirubin, urea, creatinine, urea/creatinine, glucose, potassium, and sodium were analyzed using a blood routine analyser (Mindray, Shenzhen China). Their heart, liver, spleen, lung, kidney, brain and intestinal segments were harvested. The histological morphologies of the mice organs and the body and organ weights of male and female mice were characterized.\n(B) Comparison of body weights between TG and WT mice. (C) Comparison of weight ratios of organs, including heart, liver, spleen, lung, kidney, and brain (organ weight/body weight) between TG and WT mice. Data are represented as means ± SD (WT, n ≥ 6; TG, n ≥ 6)."}, "[9]": {"test_system": "NF-κB", "assay": "NF-κB promoter activity, luciferase reporter assay in RAW 264.7 cells", "format": "cell-based, mouse", "details": "n = 6", "description": "A luciferase reporter assay was used to detect the promoter activity of NF-κB. RAW 264.7 cells were seeded in a 24-well plate for 24 h and then cotransfected with 800 ng/well of the NF-κB reporter plasmid (pGL3-Basic) and 20 ng/well of pLR-TK. WT […] luciferase (Rluc) served as the reporter gene control vector. […] In the inhibition assay, the cells were pre-treated with 1 μg/ml TLR4 inhibitor for 1 h and treated with LPS (1 μg/ml) alone or together with PBD-2 (10 μg/mL) for 24 h (n = 6 each group). Luciferase units were detected to show the promoter activity of NF-κB ([28])."}, "[10]": {"test_system": "NF-κB p65", "assay": "Western blot of p65 and p-p65 in RAW 264.7 cells", "format": "cell-based, mouse", "description": "RAW 264.7 cells were treated with LPS (1 μg/ml) alone or together with PBD-2 (10 μg/mL). After 6 h, the cells were lysed, and inflammatory proteins were detected through Western blot. Proteins were firstly analyzed with SDS-PAGE and then electro-transferred onto a PVDF (#ISEQ00010, Biosharp®, Beijing, China) membrane. The PVDF membrane was blocked with 1/100 bovine serum albumin (BSA, #V900933-100G, VETEC, Sigma-Aldrich®, St. Louis, MO, USA) at 10 μg/ml at 37°C for 2 h, washed with PBST five times, incubated with the antisera against p-p65 (# 3033), p65 (# 4764), p-ERK (# 4370), ERK (# 4695), p-p38 (# 4511), p38 (# 8690), p-JNK (# 4668), JNK (# 9258) (Cell Signaling Technology®, Danvers, MA, USA), and β-actin (# AA128, Beyotime®, Shanghai, China) at 2 μg/ml at 37°C for 2 h and washed five times again. The PVDF membrane was subsequently incubated with 1 μg/ml secondary antibody, namely, goat anti-rabbit IgG (# 7074S, Cell Signaling Technology®, Danvers, MA, USA), at 37°C for 2 h and washed five times. Lastly, immune-reactive bands were detected using an ECF Western blot system (Tanon 5200 Multi, Shanghai, China) and quantified using AlphaImager 2200 analysis software."}, "[11]": {"format": "biochemical, Escherichia coli O55:B5", "details": "PBD-2 1, 5, and 10 μg/ml mixed with LPS, 37°C, 10 min; n = 6"}}, "note": "Where a SMILES comes first, the peptide text is derived from it."}
{"compound": "CC[C@H](C)[C@H](NC(=O)[C@@H]1CSSC[C@@H]2NC(=O)[C@@H]3CCCN3C(=O)[C@H](CO)NC(=O)[C@H](Cc3ccccc3)NC(=O)[C@H](CC(N)=O)NC(=O)[C@@H]3CSSC[C@H](NC(=O)[C@H]([C@@H](C)O)NC(=O)CNC(=O)[C@H](CCC(=O)O)NC(=O)[C@H]([C@@H](C)CC)NC(=O)[C@H](CCCNC(=N)N)NC(=O)[C@H](CC(N)=O)NC(=O)[C@H](Cc4ccccc4)NC(=O)[C@H](CC(C)C)NC(=O)[C@@H]4CCCN4C2=O)C(=O)N[C@@H](Cc2ccc(O)cc2)C(=O)N[C@@H](CO)C(=O)NCC(=O)N[C@@H](CCCCN)C(=O)N[C@@H](C)C(=O)N[C@@H](CCCCN)C(=O)N[C@@H](CSSC[C@H](NC(=O)[C@@H](NC(=O)[C@H](Cc2ccc(O)cc2)NC(=O)[C@H](Cc2c[nH]cn2)NC(=O)[C@@H](N)CC(=O)O)[C@@H](C)CC)C(=O)N[C@@H](C)C(=O)N[C@@H](CCCCN)C(=O)N[C@@H](CCCCN)C(=O)NCC(=O)NCC(=O)N[C@@H]([C@@H](C)O)C(=O)N3)C(=O)N1)C(=O)N[C@@H](CCCNC(=N)N)C(=O)O", "note": "[PBD-2, Porcine beta-defensin 2] (HELM PEPTIDE1{D.H.Y.I.C.A.K.K.G.G.T.C.N.F.S.P.C.P.L.F.N.R.I.E.G.T.C.Y.S.G.K.A.K.C.C.I.R}$PEPTIDE1,PEPTIDE1,5:R3-34:R3|PEPTIDE1,PEPTIDE1,12:R3-27:R3|PEPTIDE1,PEPTIDE1,17:R3-35:R3$$$V2.0; N-terminus and C-terminus assumed)", "values": [{"measurement": "expression level of PBD-2 in the TG mice", "setting": "[1]", "result": "≤ 10^4 ng/g tissue"}, {"measurement": "LPS-induced phosphorylation of JNK", "setting": "[2]", "result": "did not affect the LPS-induced phosphorylation of ERK, p38, and JNK"}, {"measurement": "binding to LPS", "setting": "[3]", "result": "did not bind to LPS"}, {"measurement": "growth performance, caecum microbial flora, inflammatory cytokine expression", "setting": "[4]; oral administration, pigs, ref [15]", "result": "improve growth performance and caecum microbial flora and reduce the expression of inflammatory cytokines in pigs"}, {"measurement": "growth and diarrhea in piglets", "setting": "[4]; ref [13]", "result": "promote growth, alleviate diarrhea in piglets"}, {"measurement": "bactericidal activity of the serum of TG pigs", "setting": "[5]", "result": "higher than that of WT pigs"}, {"measurement": "survival at lower bacterial dose", "setting": "[6]", "result": "all the WT and TG mice survived until the end of the experiments"}, {"measurement": "survival rate", "setting": "[6]", "result": 70, "unit": "%"}, {"measurement": "LPS-induced phosphorylation of p38", "setting": "[7]", "result": "did not affect the LPS-induced phosphorylation of ERK, p38, and JNK"}, {"measurement": "ratio of organ weight to total body weight", "setting": "[8]; heart, liver, spleen, lung, kidney, brain", "result": "did not significantly differ from the WT mice in terms of body weight (Figure S1B) and the ratio of organ weight to total body weight"}, {"measurement": "body weight", "setting": "[8]", "result": "did not significantly differ from the WT mice in terms of body weight"}, {"measurement": "NF-κB promoter activity after LPS induction", "setting": "[9]; LPS 1 μg/ml with PBD-2 10 μg/mL, 24 h", "result": "inhibited the promoter activities of NF-κB after LPS induction (p < 0.01)"}, {"measurement": "NF-κB promoter activity in the presence of TLR4 inhibitor", "setting": "[9]; PBD-2 10 μg/mL with LPS 1 μg/ml, 24 h, after CLI-095 1 μg/ml", "result": "did not influence the NF-κB promoter activity in the presence of TLR4 inhibitor (NS, p > 0.05)"}, {"measurement": "inhibitory effect on NF-κB promoter activity after pre-incubation with PBD-2", "setting": "[9]; PBD-2 10, 30, and 60 μg/ml for 30, 60, 120, or 240 min, then LPS", "result": "positively correlated with dose and incubation time with PBD-2 (p < 0.05)"}, {"measurement": "LPS-induced NF-κB p65 phosphorylation", "setting": "[10]; LPS 1 μg/ml, PBD-2 10 μg/mL (legend: various concentrations), 6 h", "result": "suppress the LPS-induced NF-κB p65 phosphorylation"}, {"measurement": "activation of NF-κB by PBD-2 itself", "setting": "[10]; PBD-2 without LPS (Figure 5D)", "result": "did not activate NF-κB"}, {"measurement": "endotoxic activity of LPS", "setting": "[11]", "result": "did not affect the endotoxic activity of LPS"}]}
